Data reported in ChEMBL document CHEMBL1201862, “PubChem BioAssay data set” (2004).
Active and inactive are the calls of the source.

Tests used:
[1] = cells; assay type: functional, cell-based; settings: HEK-CNG
[2] = target: Galanin receptor type 3 (Homo sapiens, UniProt O60755); experiment: Fluorescence-based cell-based primary high throughput dose response assay to identify antagonists of the Galanin Receptor 3 (GalR3).; assay type: functional
[3] = target: T1, Beta-lactamase (Pseudomonas aeruginosa, UniProt Q79MP6)
[4] = target: T2, Beta-lactamase (Salmonella choleraesuis (strain SC-B67), UniProt Q5J463)
[5] = reduction of Shn3 3'UTR-driven luciferase in osteoblasts – cell-based, Clone20 osteoblasts, firefly luciferase, cherry-picked, dose response (AID 624132); assay type: functional;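 note: firefly luciferase luminescence from reporter carrying the Shn3 3'UTR in osteoblasts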
[6] = tested on: Jurkat; experiment: blockers of NF-kB activation in T cells – Jurkat, luciferase reporter, luminescence, B- and T-cell, dose response (AID 489004); assay type: functional, cell-based; settings: Homo sapiens;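 note: NF-kB luciferase reporter Jurkat cells stimulated with PMA plus ionomycin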
[7] = loss of viability in HepG2 cells – cell-based, CellTiter-Glo, cherry-picked, cytotoxicity control for Shn3 inhibitor project, dose response (AID 624134); assay type: functional
[8] = non-specific 3'UTR reporter inhibition in Clone20-Shn3RL – cell-based, Renilla luciferase, cherry-picked, counter-screen for Shn3 inhibitor project, dose response (AID 624133); assay type: functional
[9] = target: T3, COUP transcription factor 2 (Homo sapiens, UniProt P24468); experiment: Luminescence-based cell-based high throughput dose response assay to identify inhibitors of COUP-TFII (NR2F2).; assay type: functional;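 note: HEK293 cells transiently cotransfected with COUP-TFII expression vector and reporter; luciferase reporter luminescence driven by COUP-TFII from the pX2-168 reporter plasmid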
T3 sequence (P24468 whole entry): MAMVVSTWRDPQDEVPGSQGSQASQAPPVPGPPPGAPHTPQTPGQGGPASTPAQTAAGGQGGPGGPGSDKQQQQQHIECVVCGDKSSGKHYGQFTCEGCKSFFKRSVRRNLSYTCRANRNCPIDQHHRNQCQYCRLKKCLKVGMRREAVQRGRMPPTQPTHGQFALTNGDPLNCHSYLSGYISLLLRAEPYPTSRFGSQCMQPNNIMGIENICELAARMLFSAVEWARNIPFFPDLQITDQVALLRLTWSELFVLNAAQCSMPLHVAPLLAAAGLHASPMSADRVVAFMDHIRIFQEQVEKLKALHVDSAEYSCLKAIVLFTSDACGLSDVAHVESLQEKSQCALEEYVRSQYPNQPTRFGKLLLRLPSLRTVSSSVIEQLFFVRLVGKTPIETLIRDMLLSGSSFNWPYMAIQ

[10] = HEK-293T viability loss, compound-treated – cell-based, uHTS hits, cytotoxicity control for B/T-cell NF-kB inhibitor project, dose response (AID 489019); assay type: functional;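 note: IC50 reflects cytotoxicity as loss of cell viability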
[11] = tested on: INS1; experiment: INS-1E survival protection against cytokine death – cell-based, luminescence, retest, dose response (AID 449756); assay type: functional; settings: Rattus norvegicus;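 note: cell death triggered by IL-1 beta plus TNF-alpha plus IFN-gamma mixture; protective hits raise ATP signal compared with cytokine alone wells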
[12] = target: T1, Beta-lactamase; experiment: inhibition of IMP-1 beta-lactamase activity – biochemical, epi-absorbance, selectivity assay for VIM-2 inhibitor project, dose response (AID 1920)
[13] = target: T1, Beta-lactamase; experiment: […] counterscreen for selective VIM-2 inhibitors: dose response biochemical high throughput screening assay to identify inhibitors of IMP-1 metallo-beta-lactamase.
[14] = target: T2, Beta-lactamase; experiment: Epi-absorbance-based counterscreen for selective VIM-2 inhibitors: dose response biochemical high throughput screening assay to identify inhibitors of TEM-1 serine-beta-lactamase.
[15] = target: T4, Probable nicotinate-nucleotide adenylyltransferase (Staphylococcus aureus (strain N315), UniProt P65502); assay type: functional, Staphylococcus aureus subsp. aureus N315;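 for IC50 Mean: confirmatory dose-response retesting of NadD inhibitor hits first found in an ultra-high-throughput screen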
[16] = target: T4, Probable nicotinate-nucleotide adenylyltransferase; assay type: functional, Staphylococcus aureus subsp. aureus N315; settings: read-out: IC50_Mean
[17] = target: Beta Lactamase (Pseudomonas aeruginosa, UniProt Q932Y6); experiment: BLA reporter interference, concentration series – BLA reporter cells, FRET fluorescence, artefact control for NOD2-RIPK2 interaction inhibitor project, dose response (AID 651552); assay type: functional, cell-based
[18] = Fluorescence-based cell-based high throughput dose response assay for inhibitors of the interaction of nucleotide-binding oligomerization domain containing 2 (NOD2) and the receptor-interacting serine-threonine kinase 2 (RIPK2).; assay type: functional; settings: Homo sapiens
[19] = target: Large T antigen (Simian virus 40, UniProt P03070); assay type: functional, Betapolyomavirus macacae;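 note: Confirmatory-stage PubChem screen for compounds that inhibit SV40 T antigen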
[20] = NIH3T3 cell viability loss – ATP luminescence, mouse fibroblasts, counter-screen, dose response (AID 2010); assay type: functional, cell-based;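 note: cells exposed to compound for about 90 hours before reading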
[21] = Trypanosoma cruzi growth suppression in host cells – NIH3T3 host cells, beta-gal luminescence, confirmation (AID 2044); assay type: functional, cell-based;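 note: intracellular parasites grown in NIH/3T3 mouse fibroblasts as host cells; luminescent beta-galactosidase reporter signal from transgenic T. cruzi replicating inside host cells; inhibitors lower the luminescence signal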
[22] = target: FAD-linked sulfhydryl oxidase ALR (Homo sapiens, UniProt P55789); experiment: ALR-catalysed DTT oxidation blockers – biochemical, H2O2 detection, luminescence, cherry-pick, dose response (AID 493248)
[23] = target: T5, Streptokinase A (Streptococcus pyogenes serotype M1, UniProt P10520); experiment: viability-normalized secreted streptokinase activity reduction – plasminogen activation absorbance, OD405, dose response (AID 1914); assay type: functional, Streptococcus pyogenes M1 GAS;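 note: secreted streptokinase activity via plasminogen activation per viability signal from cell pellet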
T5 sequence (P10520 whole entry): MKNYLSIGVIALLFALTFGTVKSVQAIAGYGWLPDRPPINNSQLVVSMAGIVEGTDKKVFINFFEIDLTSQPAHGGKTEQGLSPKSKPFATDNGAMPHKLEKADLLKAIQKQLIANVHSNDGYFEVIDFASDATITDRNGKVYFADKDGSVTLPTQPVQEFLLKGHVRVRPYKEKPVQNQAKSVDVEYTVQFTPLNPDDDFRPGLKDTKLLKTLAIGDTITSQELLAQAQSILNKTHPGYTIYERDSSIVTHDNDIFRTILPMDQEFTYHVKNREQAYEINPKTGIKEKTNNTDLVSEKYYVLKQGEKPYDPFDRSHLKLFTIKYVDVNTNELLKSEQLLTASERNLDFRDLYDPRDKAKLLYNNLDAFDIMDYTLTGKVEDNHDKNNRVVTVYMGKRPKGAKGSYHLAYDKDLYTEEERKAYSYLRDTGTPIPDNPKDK

[24] = target: T6, Ubiquitin-conjugating enzyme E2 N (Homo sapiens, UniProt P61088); assay type: functional;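 note: Dose-response confirmation in a TR-FRET assay detecting UBC13-driven polyubiquitin chain formation, inhibition measured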
T6 sequence (P61088 whole entry): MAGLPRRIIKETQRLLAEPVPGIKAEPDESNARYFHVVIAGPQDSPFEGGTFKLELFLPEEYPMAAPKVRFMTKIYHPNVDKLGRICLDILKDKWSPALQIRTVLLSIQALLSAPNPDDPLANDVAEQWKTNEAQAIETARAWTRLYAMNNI

[25] = tested on: Streptococcus sp. 'group A'; experiment: Streptococcus pyogenes SK(-)GAS viability under kanamycin – luminescence, BacTiterGlo, confirmation, counter-screen for streptokinase expression inhibitor project, dose response (AID 1900); assay type: functional, organism-based
[26] = tested on: Streptococcus; experiment: GAS UMAA2166 growth inhibition – luminescence, BacTiterGlo, counter-screen for streptokinase expression inhibitor project, dose response (AID 1915); assay type: functional, organism-based;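 note: potency for reduction of bacterial viability or growth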
[27] = activation of miR-122 Renilla sensor silencing – cell-based, Huh7 psiCHECK-miR122, Renilla luciferase, cherry-picked, dose response (AID 651956); assay type: functional;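 note: huh7 hepatoma cells stably carrying a psiCHECK-2 miR-122 sensor plasmid; renilla luciferase signal reporting endogenous miR-122 activity after 48 h compound exposure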
[28] = general cell-killing toxicity readout – plate reader, dry powder samples, cytotoxicity control for PAX8 inhibitor project, dose response (AID 743021); assay type: functional, cell-based
[29] = target: Paired box protein Pax-8 (Homo sapiens, UniProt Q06710); experiment: PAX8 transcriptional activity inhibition in RMG-I – RMG-I cells, luciferase, cherry-pick, dose response (AID 687027); assay type: functional, cell-based;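 note: luciferase reporter driven by Pax8 target thyroperoxidase promoter measured by SteadyGlo luminescence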
[30] = target: T7, DNA repair protein RAD52 homolog (Homo sapiens, UniProt P43351); assay type: functional, biochemical
T7 sequence (P43351 whole entry): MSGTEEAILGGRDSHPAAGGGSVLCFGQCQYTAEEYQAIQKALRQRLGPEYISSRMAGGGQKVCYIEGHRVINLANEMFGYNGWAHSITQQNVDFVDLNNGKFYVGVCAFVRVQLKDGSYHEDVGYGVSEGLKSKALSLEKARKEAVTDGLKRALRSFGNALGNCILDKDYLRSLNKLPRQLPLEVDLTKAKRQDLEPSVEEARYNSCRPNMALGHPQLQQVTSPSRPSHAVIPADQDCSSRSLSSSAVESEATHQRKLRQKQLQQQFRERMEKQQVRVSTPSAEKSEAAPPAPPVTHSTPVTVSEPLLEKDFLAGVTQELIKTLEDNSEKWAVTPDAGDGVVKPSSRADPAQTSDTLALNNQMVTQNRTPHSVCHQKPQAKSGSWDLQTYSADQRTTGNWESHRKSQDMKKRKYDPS

[31] = target: Fructose-bisphosphate aldolase (Mycobacterium tuberculosis, UniProt P9WQA3); experiment: Fluorescence-based biochemical high throughput dose response assay for inhibitors of the fructose-bisphosphate aldolase (FBA) of M. tuberculosis.; assay type: functional
[32] = T. cruzi growth inhibition in host cells, dose response, cell-based, plate reader, dry powder, set 2 (AID 652275); assay type: functional
[33] = target: Protein Wnt-3a (Mus musculus, UniProt P27467); experiment: SAR analysis of small molecule antagonists of Gli-SUFU in a Wnt3a luminescent reporter assay.; assay type: functional
[34] = target: Nuclear receptor subfamily 5 group A member 2 (Homo sapiens, UniProt O00482); assay type: functional, cell-based;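 note: HEK293T cells transfected with LRH-1 and a StAR promoter luciferase reporter; potency for inhibitors that lower LRH-1 driven reporter light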
[35] = target: Steroidogenic factor 1 (Homo sapiens, UniProt Q13285); experiment: Counterscreen for inverse agonists of the liver receptor homolog-1 (LRH-1; NR5A2): Luminescence-based cell-based high throughput dose response assay to identify inverse agonists of the Steroidogenic Factor 1 Nuclear Receptor (SF1; NR5A1).; assay type: functional
[36] = target: T8, Microphthalmia-associated transcription factor (Homo sapiens, UniProt O75030); experiment: reducers of TRPM1 reporter luminescence, concentration series – cell-based, SK-MEL-5, cherry-picked, set 3, MITF inhibitor project, dose response (AID 493073); assay type: functional;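 note: SK-MEL-5 melanoma cells with luciferase driven by the MITF target TRPM1 promoter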
T8 sequence (O75030 whole entry): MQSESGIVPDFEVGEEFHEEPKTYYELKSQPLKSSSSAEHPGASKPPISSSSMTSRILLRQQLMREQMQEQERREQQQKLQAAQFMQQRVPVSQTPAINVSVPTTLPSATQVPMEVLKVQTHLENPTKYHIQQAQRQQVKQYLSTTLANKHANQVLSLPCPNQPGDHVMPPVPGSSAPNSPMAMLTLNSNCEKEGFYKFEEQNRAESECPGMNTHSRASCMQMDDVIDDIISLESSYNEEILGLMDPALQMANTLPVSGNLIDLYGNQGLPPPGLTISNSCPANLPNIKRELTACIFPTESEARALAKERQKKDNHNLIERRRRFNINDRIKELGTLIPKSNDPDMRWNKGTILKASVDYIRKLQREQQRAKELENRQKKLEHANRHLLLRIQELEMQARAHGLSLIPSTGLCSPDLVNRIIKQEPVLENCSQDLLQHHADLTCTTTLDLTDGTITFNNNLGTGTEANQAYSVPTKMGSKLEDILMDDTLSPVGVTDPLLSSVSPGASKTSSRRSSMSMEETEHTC

[37] = nonselective StAR promoter luciferase inhibitors – cell-based, luminescence, luciferase reporter, counter-screen for LRH-1 inverse agonist project, dose response (AID 651969); assay type: functional
[38] = target: Dual specificity tyrosine-phosphorylation-regulated kinase 1A (Rattus norvegicus, UniProt Q63470); assay type: biochemical, Homo sapiens

T1 sequence (Q79MP6 whole entry): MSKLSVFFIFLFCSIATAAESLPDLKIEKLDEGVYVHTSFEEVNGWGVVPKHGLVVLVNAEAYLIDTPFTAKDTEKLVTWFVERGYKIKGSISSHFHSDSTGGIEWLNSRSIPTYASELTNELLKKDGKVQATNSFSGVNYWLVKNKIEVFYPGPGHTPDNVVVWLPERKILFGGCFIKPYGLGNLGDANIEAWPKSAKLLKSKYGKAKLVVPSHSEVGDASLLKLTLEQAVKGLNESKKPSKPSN
T2 sequence (Q5J463 whole entry): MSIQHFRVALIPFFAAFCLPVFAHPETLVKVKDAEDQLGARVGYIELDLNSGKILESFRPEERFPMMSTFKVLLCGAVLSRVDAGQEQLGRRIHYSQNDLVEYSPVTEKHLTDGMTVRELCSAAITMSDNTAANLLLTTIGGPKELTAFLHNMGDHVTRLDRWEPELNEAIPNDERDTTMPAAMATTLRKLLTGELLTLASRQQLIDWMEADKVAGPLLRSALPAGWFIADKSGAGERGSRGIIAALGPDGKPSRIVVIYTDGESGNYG
Sequence of Galanin receptor type 3 (O60755 whole entry): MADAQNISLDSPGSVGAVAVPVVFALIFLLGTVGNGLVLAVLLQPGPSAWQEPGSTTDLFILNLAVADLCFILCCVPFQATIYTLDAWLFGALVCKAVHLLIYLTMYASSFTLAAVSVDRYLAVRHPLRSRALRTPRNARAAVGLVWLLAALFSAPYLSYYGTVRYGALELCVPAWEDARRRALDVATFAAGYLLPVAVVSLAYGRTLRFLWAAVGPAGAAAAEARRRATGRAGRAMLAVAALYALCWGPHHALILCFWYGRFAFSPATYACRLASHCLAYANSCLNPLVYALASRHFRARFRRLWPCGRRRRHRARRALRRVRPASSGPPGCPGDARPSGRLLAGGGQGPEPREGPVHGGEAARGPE
Sequence of Fructose-bisphosphate aldolase (P9WQA3 whole entry): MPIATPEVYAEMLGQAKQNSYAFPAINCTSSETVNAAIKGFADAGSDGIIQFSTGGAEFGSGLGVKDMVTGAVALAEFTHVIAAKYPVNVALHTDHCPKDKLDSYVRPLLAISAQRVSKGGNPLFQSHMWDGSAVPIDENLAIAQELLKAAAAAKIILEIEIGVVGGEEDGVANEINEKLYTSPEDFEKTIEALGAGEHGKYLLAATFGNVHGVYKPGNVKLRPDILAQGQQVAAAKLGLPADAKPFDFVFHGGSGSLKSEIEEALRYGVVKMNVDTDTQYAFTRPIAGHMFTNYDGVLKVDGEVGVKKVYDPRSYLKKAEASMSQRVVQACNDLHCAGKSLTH
Sequence of Protein Wnt-3a (P27467 whole entry): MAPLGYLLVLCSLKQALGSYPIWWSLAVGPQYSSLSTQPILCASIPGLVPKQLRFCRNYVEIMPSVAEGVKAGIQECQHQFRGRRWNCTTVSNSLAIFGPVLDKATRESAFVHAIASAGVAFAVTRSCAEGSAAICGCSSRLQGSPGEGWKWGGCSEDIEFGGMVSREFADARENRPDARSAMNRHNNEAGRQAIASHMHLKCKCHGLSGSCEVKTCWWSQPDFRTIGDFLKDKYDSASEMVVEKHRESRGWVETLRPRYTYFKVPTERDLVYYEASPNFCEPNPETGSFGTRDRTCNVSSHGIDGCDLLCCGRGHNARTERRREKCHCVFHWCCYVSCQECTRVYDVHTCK
Sequence of Beta Lactamase (Q932Y6 whole entry, the tested form may be a part): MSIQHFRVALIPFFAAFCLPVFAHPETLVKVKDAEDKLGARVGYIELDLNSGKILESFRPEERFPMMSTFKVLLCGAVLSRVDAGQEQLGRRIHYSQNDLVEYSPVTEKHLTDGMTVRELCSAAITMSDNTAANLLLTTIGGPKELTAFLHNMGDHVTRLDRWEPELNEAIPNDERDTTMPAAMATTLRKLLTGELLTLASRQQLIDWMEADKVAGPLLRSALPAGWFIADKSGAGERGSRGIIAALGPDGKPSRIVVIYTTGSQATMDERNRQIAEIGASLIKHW
T4 sequence (P65502 whole entry): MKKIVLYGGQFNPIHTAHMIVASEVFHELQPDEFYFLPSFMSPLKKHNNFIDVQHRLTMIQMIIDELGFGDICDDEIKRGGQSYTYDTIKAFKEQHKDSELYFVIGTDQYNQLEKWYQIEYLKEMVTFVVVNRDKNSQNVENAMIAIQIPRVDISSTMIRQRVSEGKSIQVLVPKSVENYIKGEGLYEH
Sequence of FAD-linked sulfhydryl oxidase ALR (P55789 whole entry): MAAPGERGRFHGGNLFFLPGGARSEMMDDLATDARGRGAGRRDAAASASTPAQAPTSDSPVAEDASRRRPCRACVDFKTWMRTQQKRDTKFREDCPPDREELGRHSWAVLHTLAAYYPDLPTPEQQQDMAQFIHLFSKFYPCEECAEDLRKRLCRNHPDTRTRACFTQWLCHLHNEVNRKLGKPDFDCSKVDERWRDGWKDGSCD
Sequence of Large T antigen (P03070 whole entry): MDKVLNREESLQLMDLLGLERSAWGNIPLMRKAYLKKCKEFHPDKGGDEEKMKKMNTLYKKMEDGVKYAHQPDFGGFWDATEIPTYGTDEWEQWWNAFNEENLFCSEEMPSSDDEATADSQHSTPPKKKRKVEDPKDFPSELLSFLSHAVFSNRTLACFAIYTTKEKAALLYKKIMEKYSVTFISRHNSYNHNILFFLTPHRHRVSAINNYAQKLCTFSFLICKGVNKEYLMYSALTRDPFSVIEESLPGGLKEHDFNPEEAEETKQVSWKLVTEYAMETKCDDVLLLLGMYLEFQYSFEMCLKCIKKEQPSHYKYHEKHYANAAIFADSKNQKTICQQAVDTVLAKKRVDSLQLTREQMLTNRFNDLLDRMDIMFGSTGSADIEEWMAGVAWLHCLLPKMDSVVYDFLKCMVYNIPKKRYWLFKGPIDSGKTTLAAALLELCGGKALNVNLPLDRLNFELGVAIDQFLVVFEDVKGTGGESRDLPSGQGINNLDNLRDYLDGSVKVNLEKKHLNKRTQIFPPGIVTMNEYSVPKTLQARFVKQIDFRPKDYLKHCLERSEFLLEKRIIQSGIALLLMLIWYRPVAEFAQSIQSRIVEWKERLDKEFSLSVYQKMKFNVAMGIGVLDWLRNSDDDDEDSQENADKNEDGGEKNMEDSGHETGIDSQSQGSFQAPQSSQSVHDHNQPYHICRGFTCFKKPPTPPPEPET
Sequence of Paired box protein Pax-8 (Q06710 whole entry): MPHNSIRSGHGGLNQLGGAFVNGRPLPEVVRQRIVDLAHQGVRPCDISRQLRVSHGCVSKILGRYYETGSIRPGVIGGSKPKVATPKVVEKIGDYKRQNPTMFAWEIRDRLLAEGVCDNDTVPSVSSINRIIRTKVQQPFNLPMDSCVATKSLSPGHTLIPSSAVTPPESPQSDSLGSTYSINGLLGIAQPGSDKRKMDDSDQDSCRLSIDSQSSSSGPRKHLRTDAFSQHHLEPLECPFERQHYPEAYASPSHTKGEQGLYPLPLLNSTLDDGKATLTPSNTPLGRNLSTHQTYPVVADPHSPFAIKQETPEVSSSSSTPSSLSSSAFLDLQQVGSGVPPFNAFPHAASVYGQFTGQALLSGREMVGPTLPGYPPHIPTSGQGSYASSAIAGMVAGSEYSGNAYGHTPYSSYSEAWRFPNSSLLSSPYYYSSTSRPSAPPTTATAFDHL
Sequence of Nuclear receptor subfamily 5 group A member 2 (O00482 whole entry): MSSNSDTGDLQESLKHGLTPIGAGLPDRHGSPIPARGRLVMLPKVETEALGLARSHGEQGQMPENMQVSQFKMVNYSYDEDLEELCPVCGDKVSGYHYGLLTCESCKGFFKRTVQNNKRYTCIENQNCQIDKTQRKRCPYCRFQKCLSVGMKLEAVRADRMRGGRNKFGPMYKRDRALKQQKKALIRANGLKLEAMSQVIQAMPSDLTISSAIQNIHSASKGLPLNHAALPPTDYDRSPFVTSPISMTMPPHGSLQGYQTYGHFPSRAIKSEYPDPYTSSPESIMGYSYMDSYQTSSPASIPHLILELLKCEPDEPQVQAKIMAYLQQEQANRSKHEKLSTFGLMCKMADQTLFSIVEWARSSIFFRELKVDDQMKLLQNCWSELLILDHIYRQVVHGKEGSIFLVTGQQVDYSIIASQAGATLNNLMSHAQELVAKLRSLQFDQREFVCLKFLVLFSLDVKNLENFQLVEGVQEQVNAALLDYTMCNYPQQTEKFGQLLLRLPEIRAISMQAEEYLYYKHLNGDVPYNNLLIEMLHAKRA
Sequence of Steroidogenic factor 1 (Q13285 whole entry): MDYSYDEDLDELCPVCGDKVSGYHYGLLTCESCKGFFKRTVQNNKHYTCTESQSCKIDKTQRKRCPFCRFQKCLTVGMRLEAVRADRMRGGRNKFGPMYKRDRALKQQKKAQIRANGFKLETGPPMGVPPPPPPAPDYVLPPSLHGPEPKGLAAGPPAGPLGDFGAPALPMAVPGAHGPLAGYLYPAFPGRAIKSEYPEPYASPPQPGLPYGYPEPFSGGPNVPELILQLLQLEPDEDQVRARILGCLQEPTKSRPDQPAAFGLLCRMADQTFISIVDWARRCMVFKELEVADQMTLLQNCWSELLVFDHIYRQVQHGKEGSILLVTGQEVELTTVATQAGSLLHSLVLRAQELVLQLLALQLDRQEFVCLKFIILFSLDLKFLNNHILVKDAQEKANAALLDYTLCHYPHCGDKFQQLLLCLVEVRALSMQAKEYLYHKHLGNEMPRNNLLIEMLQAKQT

CCC(NCCC(c1ccccc1)c1ccccc1)=C1C(=O)NC(=O)NC1=O
EC50 [1]: > 29.9 µM (inactive)
IC50 [2]: 5.36 µM (active)

CCCCC(Sc1nc(N)c(NC(=O)c2ccco2)c(=O)[nH]1)C(=O)O (stereo unspecified)
IC50 [3]: > 59.6 µM (inactive)
IC50 [4]: > 59.6 µM (inactive)

COc1ccc(CN(C)c2ccc(S(=O)(=O)N3CCN(C)CC3)cc2[N+](=O)[O-])cc1OC
AC50 [5]: 691 nM (active)
EC50 [1]: > 29.9 µM (inactive)
IC50 [6]: > 80 µM (inactive)
AC50 [7]: 824 nM (active)
AC50 [8]: 23.8 µM (active)
IC50 [9]: 2.05 µM (active)
IC50 [10]: > 80 µM (inactive)
AC50 [11]: 1.45 µM (active)
IC50 [2]: 0.419 µM (active)

Sc1nnc(C2CC2)n1Cc1ccco1
IC50 [12]: > 59.6 µM (inactive)
IC50 [13]: > 59.6 µM (inactive)
IC50 [14]: > 59.6 µM (inactive)

CCC(=O)Nc1ccc(C(=O)COC(=O)c2nc3nccc(C)n3n2)cc1
IC50 [15]: 1.92 µM (active)
IC50 [16]: 4.5 µM (active)

O=C(Nc1cccc(N2C(=O)C=CC2=O)c1)c1cccs1
IC50 [17]: 14.1 µM (inactive)
IC50 [18]: 2.27 µM (active)
IC50 [19]: 70.5 µM (active)
EC50 [20]: 4.6 µM (active)
EC50 [21]: 2.12 µM (active)

O=C(O)c1c(C(=O)O)c(-c2ccc(Br)cc2)n2c1CSC2
IC50 [12]: > 59.6 µM (inactive)
IC50 [13]: 41.9 µM (inactive)
IC50 [14]: > 59.6 µM (inactive)
AC50 [22]: 5.35 µM (active)

CC(C)(C)c1cc(NCCCn2ccnc2)n2ncc(-c3ccc(Cl)cc3)c2n1
EC50 [23]: > 150 µM (not active)
IC50 [24]: > 20 µM (inactive)
EC50 [20]: 5.5 µM (active)
EC50 [25]: 1.91 µM (active)
EC50 [26]: 6.12 µM (active)
AC50 [27]: 1.45 µM (active)
EC50 [21]: 1.49 µM (active)

CCSc1ccc(-c2cc(NC=O)c3ncc(-c4cccc(C(=O)NCCN(C)C)c4)n3c2)cc1
IC50 [17]: 20 µM (inactive)
IC50 [18]: 11.8 µM (inactive)
AC50 [28]: 53.9 µM (active)
AC50 [29]: 9.88 µM (active)
AC50 [30]: 1.14 µM (active)

CC(=O)NCCNC(=O)C1Cc2c(-c3ccc4c(c3)OCO4)ccnc2O1 (stereo unspecified)
IC50 [31]: 1.73 µM (active)

C[C@H]1CN([C@@H](C)CO)C(=O)c2cccc(NC(=O)c3ccncc3)c2O[C@@H]1CN(C)Cc1ccc(F)c(F)c1
AC50 [32]: 24.6 nM (active)

O=C(Nc1cc(N2CCCCC2)ncn1)c1cccc2ccccc12
IC50 [33]: > 21.8 µM (inactive)

CC1CCCCN1c1cc(NC(=O)c2ccccc2)ncn1 (stereo unspecified)
IC50 [33]: > 21.8 µM (inactive)

Cc1ccccc1OCC(=O)N/N=C/c1ccc([N+](=O)[O-])o1
IC50 [34]: 10.6 µM (inactive)
IC50 [35]: 6.24 µM (active)
AC50 [36]: 8.22 µM (active)
EC50 [20]: > 30 µM (not active)
IC50 [37]: 29.9 µM (inactive)
EC50 [21]: 0.151 µM (active)

CC1(C)C=Cc2cc3ccc(=O)oc3cc2O1 [XANTHYLETIN]
AC50 [38]: 8.65 µM (active)
IC50 [31]: > 1.11 µM (active)
